Source: patent publication US20150307938A1, “METHOD TO IDENTIFY A NOVEL CLASS OF IMMUNOLOGIC ADJUVANTS” (Lancell, L.L.C., priority 2011, published 2015)
Marks after values point to notes of the source that are not given here.

System: full thickness skin
Assay: Whole genome array of skin gene expression after topical DBP (time course)
Type: in vivo, C57BL/6J mice
Experimental: Mice: C57BL/6J female mice obtained from The Jackson Laboratory were used between 8 and 12 weeks of age.
Treatment: Mice were untreated or treated topically on the dorsal side of each ear with […] of dibutylphthalate (DBP). At the designated time points after treatment, the animals were euthanized and the ears washed with 70% isopropanol. Full thickness skin was obtained from the dorsal side of both ears and placed immediately in liquid nitrogen. The time between euthanasia and placement of both skin samples in liquid nitrogen was less than 1 minute. Each sample for RNA extraction contained two dorsal ear skin samples obtained from a single mouse both of whose ears received the same treatment.
RNA Extraction: While in liquid nitrogen, the skin was pulverized with a motorized mortar and pestle (CryoGrinder), transferred by inversion of the mortar directly into 1.5 ml cryogenic vials (Nalgene) and stored in liquid nitrogen until RNA extraction. Total RNA from both ears was extracted by homogenization (Pro200) in TRIzol Reagent (Invitrogen) with 7.5 μg of RNase-free glycogen added to the mixture, according to the manufacturer's directions. The RNA was purified on a solid phase RNeasy MinElute Cleanup column (Qiagen) and eluted with 17 μL of RNase-free water. The samples were stored at −20° C. until use.
Quantification of RNA: RNA yields were quantified by UV absorption using a NanoDrop NG-1000 spectrophotometer, where 1 AU 260 equals 40 μg RNA/ml. Purity was estimated by the 260 and 280 nm absorbance ratio; values between 1.7 and 2.1 were considered acceptable.
Assessment of RNA Quality: The quality of sample RNA was assessed using a RNA 6000 LABCHIP Kit on an Agilent 2100 Bioanalyzer. The Bioanalyzer determines the integrity/purity of the RNA samples and permits the screening of total and mRNA sample degradation and ribosomal RNA contamination. An RNA 6000 ladder was also loaded on a specified well and used as a reference for data analysis and a built-in quality control measure. The quality and integrity of the RNA was determined through visual inspection of each electropherogram. In general, only samples with a RIN (RNA integrity number) of 7 or greater, as determined by the Bioanalyzer, were used for gene arrays. This quality control analysis was repeated following the labeling procedure to ensure that the probes were efficiently labeled and had the correct size before hybridization to the chips. All samples that were run on genome wide arrays were obtained as independent duplicates from two individual mice.
Microarray Data Interpretation: Gene expression was compared between untreated and treated total RNA samples. “Transition” data, which represent the change in expression level for a given gene, are presented as a “weighted difference.” Changes in gene expression level were considered to be significant when the adjusted p values were less than […]. The “gene expression signature” arbitrarily includes only those genes that were transcribed with a weighted increase of 2.0 or greater, which was sustained over the subsequent time points tested.
The weighted difference is a metric that takes into account both the variability between different time-points and the variability between replicates at the same time-point. The calculations are performed for each time-point transition, i.e., 30 minutes vs. 1 hour, 1 hour vs. 2 hours, etc. There are two steps to the calculation: the calculation of a modified Euclidean difference between the two time-points, and the calculation of the Euclidean difference between the replicates within each time-point. The first measure is an unweighted difference, while the final metric given in the spreadsheet “weights” this difference by taking into account the second measure.
In a Euclidean difference calculation, each data point is considered as a vector in a multi-dimensional space, and the actual straight-line distance between the data points is calculated. […]

[1] = First 15 min after DBP application

CCCCOC(=O)c1ccccc1C(=O)OCCCC [DBP, dibutylphthalate]
DBP Unique genes, number (2 hr): 42 | DBP-Induced genes (≧2x Increased Expression), number (2 hr): 112 | TLR-Induced among DBP-induced genes, number (2 hr): 70^# | Acot5 Change in Gene Expression (Weighted Difference) (2 hr to 4 hr Transition): 2.191 | Akr1c18 Change in Gene Expression (Weighted Difference) (2 hr to 4 hr Transition): −0.08563 | Areg Change in Gene Expression (Weighted Difference) (2 hr to 4 hr Transition): 3.401 | Atp2c2 Change in Gene Expression (Weighted Difference) (2 hr to 4 hr Transition): −0.002189 | Btg2 Change in Gene Expression (Weighted Difference) (2 hr to 4 hr Transition): 1.009 | Ccr4 Change in Gene Expression (Weighted Difference) (2 hr to 4 hr Transition): 0.03996 | Cdh10 Change in Gene Expression (Weighted Difference) (2 hr to 4 hr Transition): −0.008005 | Cish Change in Gene Expression (Weighted Difference) (2 hr to 4 hr Transition): 0.7204 | Cox17 Change in Gene Expression (Weighted Difference) (2 hr to 4 hr Transition): −0.1255 | Ctgf Change in Gene Expression (Weighted Difference) (2 hr to 4 hr Transition): 2.29 | Cysltr1 Change in Gene Expression (Weighted Difference) (2 hr to 4 hr Transition): −0.8049 | Ddx21 Change in Gene Expression (Weighted Difference) (2 hr to 4 hr Transition): 2.413 | Dlx4 Change in Gene Expression (Weighted Difference) (2 hr to 4 hr Transition): 3.05 | Dusp14 Change in Gene Expression (Weighted Difference) (2 hr to 4 hr Transition): 2.291 | Egr1 Change in Gene Expression (Weighted Difference) (2 hr to 4 hr Transition): 2.348 | Egr2 Change in Gene Expression (Weighted Difference) (2 hr to 4 hr Transition): 0.5934 | Fam115c Change in Gene Expression (Weighted Difference) (2 hr to 4 hr Transition): 2.163 | Fbxo42 Change in Gene Expression (Weighted Difference) (2 hr to 4 hr Transition): 2.267 | Fosl1 Change in Gene Expression (Weighted Difference) (2 hr to 4 hr Transition): 4.432 | Frk Change in Gene Expression (Weighted Difference) (2 hr to 4 hr Transition): −0.0494 | Gart Change in Gene Expression (Weighted Difference) (2 hr to 4 hr Transition): 5.268 | Gbp8 Change in Gene Expression (Weighted Difference) (2 hr to 4 hr Transition): −0.04223 | Gem Change in Gene Expression (Weighted Difference) (2 hr to 4 hr Transition): 1.546 | Gimap7 Change in Gene Expression (Weighted Difference) (2 hr to 4 hr Transition): 0.03205 | Has1 Change in Gene Expression (Weighted Difference) (2 hr to 4 hr Transition): 2.54 | Ier3 Change in Gene Expression (Weighted Difference) (2 hr to 4 hr Transition): 4.521 | Il10 Change in Gene Expression (Weighted Difference) (2 hr to 4 hr Transition): 2.932 | Il10ra Change in Gene Expression (Weighted Difference) (2 hr to 4 hr Transition): 0.1254 | Il20 Change in Gene Expression (Weighted Difference) (2 hr to 4 hr Transition): 2.876 | Irf4 Change in Gene Expression (Weighted Difference) (2 hr to 4 hr Transition): 3.715 | Jun Change in Gene Expression (Weighted Difference) (2 hr to 4 hr Transition): 0.9971 | Junb Change in Gene Expression (Weighted Difference) (2 hr to 4 hr Transition): 0.9119 | Kcnk1 Change in Gene Expression (Weighted Difference) (2 hr to 4 hr Transition): 32.8 | LOC100046066 Change in Gene Expression (Weighted Difference) (2 hr to 4 hr Transition): −0.1464 | LOC100046410 Change in Gene Expression (Weighted Difference) (2 hr to 4 hr Transition): 2.134 | Lcn5 Change in Gene Expression (Weighted Difference) (2 hr to 4 hr Transition): 3.183 | Madcam1 Change in Gene Expression (Weighted Difference) (2 hr to 4 hr Transition): −0.01081 | Maml1 Change in Gene Expression (Weighted Difference) (2 hr to 4 hr Transition): 3.564 | Map3k11 Change in Gene Expression (Weighted Difference) (2 hr to 4 hr Transition): 2.249 | Med17 Change in Gene Expression (Weighted Difference) (2 hr to 4 hr Transition): −2.259E−05 | Mkks Change in Gene Expression (Weighted Difference) (2 hr to 4 hr Transition): −0.2406 | Mndal Change in Gene Expression (Weighted Difference) (2 hr to 4 hr Transition): 0.09548 | Mtap7d1 Change in Gene Expression (Weighted Difference) (2 hr to 4 hr Transition): 6.99 | Myc Change in Gene Expression (Weighted Difference) (2 hr to 4 hr Transition): 1.296 | Myh3 Change in Gene Expression (Weighted Difference) (2 hr to 4 hr Transition): 8.012 | Myl2 Change in Gene Expression (Weighted Difference) (2 hr to 4 hr Transition): 12.2 | N6amt2 Change in Gene Expression (Weighted Difference) (2 hr to 4 hr Transition): −0.02824 | Nedd4l Change in Gene Expression (Weighted Difference) (2 hr to 4 hr Transition): 2.067 | Nr4a1 Change in Gene Expression (Weighted Difference) (2 hr to 4 hr Transition): 4.572 | P2ry1 Change in Gene Expression (Weighted Difference) (2 hr to 4 hr Transition): −0.2494 | Palmd Change in Gene Expression (Weighted Difference) (2 hr to 4 hr Transition): 2.134 | Prf1 Change in Gene Expression (Weighted Difference) (2 hr to 4 hr Transition): −0.1682 | Prss23 Change in Gene Expression (Weighted Difference) (2 hr to 4 hr Transition): 6.983 | Pxmp4 Change in Gene Expression (Weighted Difference) (2 hr to 4 hr Transition): 3.362 | Rai12 Change in Gene Expression (Weighted Difference) (2 hr to 4 hr Transition): 6.683 | Rassf5 Change in Gene Expression (Weighted Difference) (2 hr to 4 hr Transition): 2.519 | Sik1 Change in Gene Expression (Weighted Difference) (2 hr to 4 hr Transition): 1.009 | Slc25a25 Change in Gene Expression (Weighted Difference) (2 hr to 4 hr Transition): 2.285 | Slc39a8 Change in Gene Expression (Weighted Difference) (2 hr to 4 hr Transition): 2.101 | Tiparp Change in Gene Expression (Weighted Difference) (2 hr to 4 hr Transition): 2.281 | Tmed3 Change in Gene Expression (Weighted Difference) (2 hr to 4 hr Transition): −0.1013 | Tmem51 Change in Gene Expression (Weighted Difference) (2 hr to 4 hr Transition): 6.104 | Tnfaip8l1 Change in Gene Expression (Weighted Difference) (2 hr to 4 hr Transition): 2.28 | Tnip1 Change in Gene Expression (Weighted Difference) (2 hr to 4 hr Transition): 3.267 | Tnni1 Change in Gene Expression (Weighted Difference) (2 hr to 4 hr Transition): 3.47 | Tnnt1 Change in Gene Expression (Weighted Difference) (2 hr to 4 hr Transition): 2.946 | Trib1 Change in Gene Expression (Weighted Difference) (2 hr to 4 hr Transition): 2.432 | Zfp36 Change in Gene Expression (Weighted Difference) (2 hr to 4 hr Transition): 2.638 | Zfp326 Change in Gene Expression (Weighted Difference) (2 hr to 4 hr Transition): 2.164 | % Shared (DBP-induced genes also TLR-induced) (4 hr): 64% | DBP Unique genes, number (4 hr): 13 | DBP-Induced genes (≧2x Increased Expression), number (4 hr): 36 | TLR-Induced among DBP-induced genes, number (4 hr): 23^# | Acot5 Change in Gene Expression (Weighted Difference) [1]: 2.251 | Akr1c18 Change in Gene Expression (Weighted Difference) [1]: 3.655 | Atp2c2 Change in Gene Expression (Weighted Difference) [1]: 5.815 | Btg2 Change in Gene Expression (Weighted Difference) [1]: 61.87 | Ccr4 Change in Gene Expression (Weighted Difference) [1]: 2.16 | Cdh10 Change in Gene Expression (Weighted Difference) [1]: 2.487 | Cish Change in Gene Expression (Weighted Difference) [1]: 2.011 | Cox17 Change in Gene Expression (Weighted Difference) [1]: 2.318 | Cysltr1 Change in Gene Expression (Weighted Difference) [1]: 7.656 | Egr1 Change in Gene Expression (Weighted Difference) [1]: 3.561 | Egr2 Change in Gene Expression (Weighted Difference) [1]: 2.003 | Frk Change in Gene Expression (Weighted Difference) [1]: 6.498 | Gbp8 Change in Gene Expression (Weighted Difference) [1]: 4.073 | Gem Change in Gene Expression (Weighted Difference) [1]: 2.491 | Gimap7 Change in Gene Expression (Weighted Difference) [1]: 4.789 | Ier3 Change in Gene Expression (Weighted Difference) [1]: 5.581 | Il10ra Change in Gene Expression (Weighted Difference) [1]: 2.325 | Jun Change in Gene Expression (Weighted Difference) [1]: 6.095 | Junb Change in Gene Expression (Weighted Difference) [1]: 4.5 | LOC100046066 Change in Gene Expression (Weighted Difference) [1]: 2.503 | Madcam1 Change in Gene Expression (Weighted Difference) [1]: 4.39 | Med17 Change in Gene Expression (Weighted Difference) [1]: 3.949 | Mkks Change in Gene Expression (Weighted Difference) [1]: 11.97 | Mndal Change in Gene Expression (Weighted Difference) [1]: 2.311 | Myc Change in Gene Expression (Weighted Difference) [1]: 24.16 | N6amt2 Change in Gene Expression (Weighted Difference) [1]: 3.347 | Nr4a1 Change in Gene Expression (Weighted Difference) [1]: 5.48 | P2ry1 Change in Gene Expression (Weighted Difference) [1]: 2.279 | Prf1 Change in Gene Expression (Weighted Difference) [1]: 7.177 | Sik1 Change in Gene Expression (Weighted Difference) [1]: 3.072 | Slc39a8 Change in Gene Expression (Weighted Difference) [1]: 3.193 | Tmed3 Change in Gene Expression (Weighted Difference) [1]: 2.37 | Zfp36 Change in Gene Expression (Weighted Difference) [1]: 4.19 | % Shared (DBP-induced genes also TLR-induced) (Total): 64% | DBP Unique genes, number (Total): 200 | DBP-Induced genes (≧2x Increased Expression), number (Total): 561 (33*) | TLR-Induced among DBP-induced genes, number (Total): 361 (340^#)
